Results: PMC7355684 (Pharmaceutics, 2020)
Where a SMILES comes first, the peptide text is derived from it. Side-chain parts run from the residue outwards. The star is where a group is joined. Daunorubicin(13-NOCH2CO) = COc1cccc2c1C(=O)c1c(O)c3c(c(O)c1C2=O)C[C@@](O)(C(C)=NOCC(=O)*)C[C@@H]3O[C@H]1C[C@H](N)[C@H](O)[C@H](C)O1

Legend:
PANC-1 cells [1] = assay: Colorimetric (alamarBlue) cytotoxicity on PANC-1; type: cell-based; settings: Homo sapiens, concentration needed to decrease the cell viability by 50%, read-out: IC50 (colorimetry)
Protocol: (§1) The protocol for the alamarBlue-assay was similar to the method which was published earlier, with some minor modifications. Briefly, the cell seeding occurred on 96-well cell culture plates (Sarstedt AG, Nümbrecht, Germany) at 10^4 cells/well concentration. After a 24 h long culturing period, the treatment was carried out with the conjugates at 10^−4, 10^−5 and 10^−6 M final concentrations for 24, 48 and 72 h. In the next steps, the alamarBlue reagent (0.15 mg/mL, Sigma-Aldrich) dissolved in phosphate-buffered saline (PBS; pH = 7.2), was added to the wells. After 6 h incubation with the reagent, the fluorescence intensity of the samples was obtained by an LS-50B Luminescence Spectrometer (Perkin Elmer Ltd., Buckinghamshire, UK) or a Fluoroskan^TM FL Microplate Fluorometer and Luminometer (Thermo Scientific, Waltham, MA, USA) by using the following settings: λex = 560 nm and λem = 590 nm.
Three parallels were performed per treatment group. […] Fluorescence intensities of the samples treated with various concentrations of conjugates were expressed as a percentage of the fluorescence of control.
To confirm that the different methods can be used to compare the effects of conjugates on the different model cells, the cytotoxicity of Dau was measured by both impedimetric and colorimetric methods on PANC-1 cells.

[2] = tested on: s.c. PANC-1 human pancreatic carcinoma; assay: Subcutaneous PANC-1 human pancreatic cancer mouse model; type: in vivo, SCID mice
Protocol: For establishing pancreatic tumor in experimental animals, PANC-1 cells were used, which were cultured in RPMI 1640 medium (Lonza), supplemented with 10% heat-inactivated FBS (Biosera, Nuaille, France), and 1% penicillin/streptomycin (Lonza). They were cultured in sterile T175 flasks (Sarstedt AG) with a ventilation cap at 37 °C in a humidified atmosphere with 5% CO2.
Pancreatic cancer (PANC-1) cells were injected into SCID male mice (22–34 g) subcutaneously (s.c.), 3 × 10^6 cells per animal in 200 µL M199 (Sigma-Aldrich) per animal. The (i.p.) administration of treatment started 10 days after cells inoculation when the average tumor volume was 36 mm^3. Four groups with 7 animals per group were established and treated. The doses and schedule were as follows: control group was treated with sterile water used for the solubilization of Dau and the conjugates, while animals in the group administered with free Dau were treated on days 10, 19 and 24 after cell inoculation with a dose of 1 mg/kg. Mice administered with the conjugate 4 were separated in two groups and treated either with a dose of 10 mg/kg Dau-content (21.6 mg/kg conjugate) or with a dose of 2 mg/kg Dau-content (4.3 mg/kg conjugate) on days 10, 13, 19, 21, 24, 28, 31, 34, 39, 42, 46, 49, 53, 56, 60, 63, 67 and 70 after cells inoculation. Animal weight and tumor volumes were measured initially when the treatment started and at periodic intervals according to the treatment schedule. A digital caliper was used to measure the longest (a) and the shortest diameter (b) of a given tumor. The tumor volume was calculated using the formula V = ab^2 × π/6, where a and b represent the measured parameters (length and width). The experiment was terminated on day 74 after cells inoculation (day 65 of treatment). Animals treated with free Dau had to be terminated after 3 treatments on day 28 after cells inoculation (day 19 of treatment) due to significant weight-loss. Animals were sacrificed by cervical dislocation; primary tumors and livers were harvested and weighted.

PANC-1 cells [3] = assay: Flow cytometric cell surface binding and internalization; type: cell-based, human; settings: 10^-5 M, flow cytometry, mean of 2 parallels ± SD
Protocol: Cell surface binding and internalization of the conjugates were performed by flow cytometry (FACS-Calibur, Becton Dickinson, San Jose, CA, USA) based on the detection of the fluorescence activity of Dau (λex = 488 nm, λem = 585 nm) linked to the peptides. Studies of binding and uptake were performed on PANC-1 cells.
Cells were seeded (2.5 × 10^5 cells/mL, 900 μL/well) on 12-well plates, 24 h prior to the treatment with conjugates and free Dau. To distinguish the cell surface binding and internalization of conjugates, the cells were treated with the conjugate solutions at a final concentration of 10^−5 M at two temperatures (37 °C and 4 °C) in parallel. After the incubation period of 30 min, cells were washed with PBS and were removed from the plate using TrypLE (Thermo Fisher Scientific, Waltham, MA, USA) cell-dissociation reagent, thus avoiding cell surface protein degradation. […] After the centrifugation of the cell suspension, the cell pellets were resuspended in PBS (400 μL/tube) and the samples were measured by a flow cytometer.
To determine the fluorescence intensity and to evaluate the results CellQuest Pro (Becton Dickinson) and Flowing2.5.1. […] The instrument determines the relative fluorescence intensity of Dau built in the conjugates as geometric mean channel (GeoMean) value. […]

PANC-1 cells [4] = assay: cells; type: cell-based, human
Protocol: This measurement is based on the registration of electrical resistance (impedance, Z) in alternating current (AC) field. The living cells transplanted to the gold measuring electrodes are physically insulated by phospholipid bilayer that covers them. This instrumentally measurable property changes (decreases) in response to cellular cytotoxic agents. Our measurements were performed on xCELLigence single plate (ACEA Biosciences, San Diego, CA, USA) dedicated for impedimetric analysis of cellular samples at 37 °C and 5% CO2.
During the initial phase of the experiments—the baseline recording—a special 96-well cell culture plate, E-plate (ACEA Biosciences), equipped with measuring electrodes, was pretreated with freshly prepared cell culture medium (for 60 min; sampling frequency: 1 min). Subsequently, PANC-1 cells were plated at a cell density of 10^4 cells/well. During the 24 h incubation, the cells evenly covered the electrodes at the bottom of the wells of the E-plate. The resulting confluent cell cultures were then treated with the test substances at the following final concentrations: 10^−6, 10^−5, 10^−4 M. Total treatment duration was 72 h and the sampling rate was 1 min (0–24 h); and then 15 min (48–72 h). In our measurements, three replicates were used, the control was the drug-free medium. […] The CI results were analyzed with xCELLigence RTCA 2.0 software and Origin Pro 8.0 software.

[5] = in vivo; cited from earlier work
Description: Daunomycin (Dau) was applied as a payload. It was indicated in our previous research that Dau can be attached to peptides via oxime linkage easily with good yields. […] It might be because of the lower DNA binding affinity of the Dau containing metabolite compared to Dau. However, the oxime linked conjugates are stable in the circulation and no loss of Dau can be observed before reaching the target cells.

[6] = Lysosomal degradation of conjugates by LC-MS; type: in vitro ADME; settings: rat liver lysosome homogenate, 0.2 M NaOAc pH 5.03, 0.025 μg/μL conjugate, 37 °C, sampling up to 72 h
Protocol: For the stability and metabolism studies of the conjugates, liquid chromatography–mass spectrometry (LC-MS) analyses were performed on a Q ExactiveTM Focus, high resolution and high mass accuracy, hybrid quadrupole-orbitrap mass spectrometer (Thermo Fisher Scientific, Bremen, Germany) using on-line UHPLC coupling. UHPLC separation was performed on a Dionex 3000 UHPLC system using a Supelco Ascentis C18 column (2.1 × 150 mm, 3 µm). Linear gradient elution (0 min 2% B, 1 min 2% B, 17 min 90% B) with eluent A (0.1% HCOOH in water, v/v) and eluent B (0.1% HCOOH in acetonitrile/water, 80:20, v/v) was used at a flow rate of 0.2 mL/min at 40 °C. High-resolution mass spectra were acquired in the 200–1600 m/z range. LC-MS data were analyzed by XcaliburTM software (Thermo Fisher Scientific) and with Origin Pro 8 (OriginLab Corp., Northampton, MA, USA).
Conjugates were dissolved in distilled water in 2.5 μg/μL concentration followed by dilution with 0.2 M NaOAc solution (pH = 5.03) to 0.025 μg/μL. The lysosome-homogenate was prepared from rat liver and contained proteins in 16.6 μg/μL concentration. An aliquot (20 μL) of this stock solution was further diluted with […] 0.2 M NaOAc solution, therefore the final protein concentration was 0.83 μg/μL. To prepare the reaction mixture, 15 μL (0.83 μg/μL) lysosome homogenate was added to 500 μL (0.025 μg/μL) conjugate solution. Furthermore, a control reaction mixture was always prepared which contained 500 μL conjugate solution and 15 μL NaOAc solution only. The solutions were stirred on 600 rpm at 37 °C and samples (50 μL) were taken out at 0 min, 5 min, 15 min, 30 min, 1 h, 2 h, 6 h, 24 h, and 72 h. The enzymatic activity was quenched by adding 5 μL formic acid to the samples. After this procedure, samples were frozen immediately at −25 °C. Control samples were taken at 0 min, 15 min, 1 h, 6 h, 24 h and 72 h. Composition of the samples was determined by HPLC-MS as described above.

A2058 cells = type: cell-based, human; settings: alamarBlue fluorescence normalized to control wells, 10^-5 M, mean ± SD, n=3
Protocol: (§2) EBC-1 and Colo-205 model cells have weak/negligible adherent properties, and A2058 cells could not produce constant cell index values. Therefore, a colorimetric assay (alamarBlue-assay) was chosen instead of the xCELLigence system to investigate the viability of these model cells treated with the conjugates. Due to the growth characteristics of NHDF cells, alamarBlue-assay was performed also on this cell line.
as §1
(§3) Three parallels were performed per treatment group. In the case of controls, an equivalent volume of cell culture media was added to the cell. Fluorescence intensities of the samples treated with various concentrations of conjugates were expressed as a percentage of the fluorescence of control.

Colo-205 cells = type: cell-based, human; settings: alamarBlue fluorescence normalized to control wells, 10^-5 M, mean ± SD, n=3
Protocol: as §2, §1, §3

EBC-1 cells = type: cell-based, human; settings: alamarBlue fluorescence normalized to control wells, 10^-5 M, mean ± SD, n=3
Protocol: as §2, §1, §3

Row | SMILES | IC50 (PANC-1 cells [1]) | Animal weight decrease compared to start of the experiment ([2]; free Dau 1 mg/kg i.p., 3 treatments, day 28 after cell inoculation) | Decrease of average liver/body weight ratio vs control ([2]; free Dau 1 mg/kg i.p., three times, day 28 after cell inoculation) | Inhibition of tumor growth (tumor volume) ([2]; free Dau 1 mg/kg i.p., day 28 after cell inoculation (day 19 of treatment)) | Liver / body weight (printed in Figure 9D, %) ([2]; free Dau 1 mg/kg, three treatments, day 28, relative to control) | Relative fluorescence intensity (GeoMean values), Cellular uptake (PANC-1 cells [3]; 30 min, GeoMean at 37 °C minus GeoMean at 4 °C) | Relative fluorescence intensity (GeoMean values), Binding (PANC-1 cells [3]; 30 min at 4 °C, Dau fluorescence, corrected for autofluorescence) | IC50 (PANC-1 cells [4]; Homo sapiens, PANC-1, read-out: IC50 (impedimetry)) | Maximum tolerated dose (MTD) [5] | Time to complete lysosomal degradation [6] | Viability (%) at 10^−5 M Concentration, After 72 h Incubation (PANC-1 cells [4]; PANC-1, impedimetry, cell index normalized to control wells, 10^−5 M, 72 h, mean ± SD, n = 3) | Viability after 24 h (PANC-1 cells [4]; PANC-1, impedimetry, 10^−5 M, 24 h (Figure 1A)) | Viability (%) at 10-5 M concentration, after 72 h incubation, A2058 (A2058 cells) | Viability (%) at 10-5 M concentration, after 72 h incubation, Colo-205 (Colo-205 cells) | Viability (%) at 10-5 M concentration, after 72 h incubation, EBC-1 (EBC-1 cells)
1 | COc1cccc2c1C(=O)c1c(O)c3c(c(O)c1C2=O)C[C@@](O)(C(C)=O)C[C@@H]3O[C@H]1C[C@H](N)[C@H](O)[C@H](C)O1 [Dau, Daunomycin] | 179 nM | 21% | 29.1% | 35.7% | 70.9% | 702.048 ± 84.340 | 72.057 ± 3.907 | 189 nM | 1 to 2 mg/kg | – | – | – | – | – | –
2 | COc1cccc2c1C(=O)c1c(O)c3c(c(O)c1C2=O)C[C@@](O)(C(C)=NOCC(=O)NCC(=O)N[C@@H](Cc1ccccc1)C(=O)N[C@@H](CC(C)C)C(=O)NCC(=O)NCCCC[C@H](NC(=O)CNC(=O)[C@H](CC(C)C)NC(=O)[C@H](Cc1ccccc1)NC(=O)CNC(=O)CON=C(C)[C@]1(O)Cc2c(O)c4c(c(O)c2[C@@H](O[C@H]2C[C@H](N)[C@H](O)[C@H](C)O2)C1)C(=O)c1c(OC)cccc1C4=O)C(=O)N[C@@H](CO)C(=O)N[C@@H](CCCCN)C(=O)N[C@@H](C)C(=O)N[C@@H](C)C(=O)N[C@@H](CCCCN)C(=O)N[C@@H](CC(N)=O)C(=O)O)C[C@@H]3O[C@H]1C[C@H](N)[C@H](O)[C@H](C)O1 [conjugate 5, Dau=Aoa-GFLG-K(Dau=Aoa-GFLG)SKAAKN-OH] ({Daunorubicin(13-NOCH2CO)}-GFLGK([Gly-Leu-Phe-Gly-Daunorubicin(13-NOCH2CO)])SKAAKN-OH) | – | – | – | – | – | – | – | – | – | > 72 h | 31.3 ± 1.8% | 34% | 61.9 ± 11.6% | 45.8 ± 2.6% | 57.6 ± 11.1%
